Experimental data: the supplement of paper PMC11061612

Key:
[1] = test system: Hs-766T (Pancreatic Carcinoma); assay: combination Emax (second highest fraction inhibited in the dose matrix, 72 h); higher = more inhibition; extreme values may be limits of the assay
In short: (§1)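 Cell lines in DMEM/F12 or RPMI with 10% FBS were plated in 1536-well plates, held 24 hours at 37°C, 5% CO2, then given two-drug dose matrices for 72 hours (DMSO typically 0.2%). Viability was read by CellTiter-Glo 2.0 luminescence and scaled as inhibition from 0 (vehicle wells) to 1 (blank wells). Combination Emax is the second-highest inhibition in the matrix; Bliss excess is observed combination effect minus expected EA + EB − EA·EB, EA and EB being single-agent effects.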

[2] = test system: EoL-1-cell (Acute Myeloid Leukemia); assay: as above
In short: as §1

D-263MG (Glioblastoma) = assay: as above
In short: as §1

TGW (Neuroblastoma) = assay: as above
In short: as §1

[3] = test system: KARPAS-299 (T-Cell Non-Hodgkin's Lymphoma); assay: as above
In short: as §1

TK10 (Kidney Carcinoma) [4] = assay: as above
In short: as §1

UACC-62 (Melanoma) = assay: as above
In short: as §1

[5] = test system: NCI-H358 (Lung Adenocarcinoma); assay: as above
In short: as §1

[6] = test system: BT-549 (Breast Carcinoma); assay: as above
In short: as §1

[7] = test system: PANC-04-03 (Pancreatic Carcinoma); assay: as above
In short: as §1

[8] = test system: EFM-19 (Breast Carcinoma); assay: as above
In short: as §1

[9] = test system: MLMA (Other Blood Carcinomas); assay: as above
In short: as §1

[10] = test system: Caov-4 (Ovarian Carcinoma); assay: as above
In short: as §1

NB69 (Neuroblastoma) = assay: as above
In short: as §1

ACHN (Kidney Carcinoma) = assay: as above
In short: as §1

[11] = test system: KYSE-450 (Esophageal Squamous Cell Carcinoma); assay: Bliss excess, mean over the matrix (fraction); higher = more synergy
In short: as §1

[12] = test system: RF-48 (B-Cell Non-Hodgkin's Lymphoma); assay: as above
In short: as §1

TK10 (Kidney Carcinoma) [13] = assay: as above
In short: as §1

[14] = test system: BT-549 (Breast Carcinoma); assay: as above
In short: as §1

EW-24 (Ewing's Sarcoma) = assay: as above
In short: as §1
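Throughout, for Bliss excess, mean over the matrix: after 72 h of two-drug dosing.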

| SMILES | combination Emax [1] | combination Emax [2] | combination Emax (D-263MG (Glioblastoma)) | combination Emax (TGW (Neuroblastoma)) | combination Emax [3] | combination Emax (TK10 (Kidney Carcinoma) [4]) | combination Emax (UACC-62 (Melanoma)) | combination Emax [5] | combination Emax [6] | combination Emax [7] | combination Emax [8] | combination Emax [9] | combination Emax [10] | combination Emax (NB69 (Neuroblastoma)) | combination Emax (ACHN (Kidney Carcinoma)) | Bliss excess [11] | Bliss excess [12] | Bliss excess (TK10 (Kidney Carcinoma) [13]) | Bliss excess [14] | Bliss excess (EW-24 (Ewing's Sarcoma)) |
| --- | --- | --- | --- | --- | --- | --- | --- | --- | --- | --- | --- | --- | --- | --- | --- | --- | --- | --- | --- | --- |
| Cc1cc2ncnn2cc1Nc1ncc2c(n1)n(C1CCOCC1)c(=O)n2C [AZD7648] + O=C(c1cc(Cc2n[nH]c(=O)c3ccccc23)ccc1F)N1CCN(C(=O)C2CC2)CC1 [Olaparib] (first compound max 10 µM, 7x7, partner max 10 µM) | 0.353 | 0.42 | 0.094 | 0.344 | 0.151 | 0.234 | 0.253 | 0.279 | 0.18 | 0.183 | 0.401 | 0.279 | 0.199 | 0.541 | 0.211 | -0.0635 | 0.0158 | -0.0843 | -0.0487 | -0.0449 |
| CN(CCO)CC[C@H](CSc1ccccc1)Nc1ccc(S(=O)(=O)NC(=O)c2ccc(N3CCC([C@@H](O)c4ccccc4-c4ccc(Cl)cc4)CC3)cc2)cc1S(=O)(=O)C(F)(F)F [AZD4320] + Nc1ccn([C@@H]2O[C@H](CO)[C@@H](O)C2(F)F)c(=O)n1 [Gemcitabine] (first compound max 1 µM, 7x7, partner max 0.3 µM) | 0.311 | 1 | 0.363 | 0.934 | 0.812 | 0.301 | 0.72 | 0.396 | 0.199 | 0.461 | 0.702 | 0.896 | 0.685 | 0.997 | 0.969 | -0.0497 | -0.0365 | 0.0032 | -0.0365 | 0.118 |
| CN(CCO)CC[C@H](CSc1ccccc1)Nc1ccc(S(=O)(=O)NC(=O)c2ccc(N3CCC([C@@H](O)c4ccccc4-c4ccc(Cl)cc4)CC3)cc2)cc1S(=O)(=O)C(F)(F)F [AZD4320] + CCN(CCO)CCCOc1ccc2c(Nc3cc(CC(=O)Nc4cccc(F)c4)[nH]n3)ncnc2c1 [AZD2811] (first compound max 1 µM, 7x7, partner max 1 µM) | 0.171 | 1 | 0.653 | 0.928 | 0.191 | 0.439 | 0.201 | 0.269 | 0.432 | 0.138 | 0.932 | 0.228 | 0.448 | 0.902 | 0.207 | -0.0273 | 0.0643 | -0.0199 | 0.0218 | 0.0538 |
| CN(CCO)CC[C@H](CSc1ccccc1)Nc1ccc(S(=O)(=O)NC(=O)c2ccc(N3CCC([C@@H](O)c4ccccc4-c4ccc(Cl)cc4)CC3)cc2)cc1S(=O)(=O)C(F)(F)F [AZD4320] + C1CN(CCC1(C(=O)N[C@@H](CCO)C2=CC=C(C=C2)Cl)N)C3=NC=NC4=C3C=CN4 [Capivasertib] (first compound max 1 µM, 7x7, partner max 3 µM) | 0.204 | 1 | 0.0907 | 0.924 | 0.0749 | 0.39 | 0.341 | 0.273 | 0.294 | 0.178 | 0.87 | 0.384 | 0.131 | 0.652 | 0.121 | -0.0449 | -0.0097 | -0.0676 | -0.0094 | -0.0378 |
| Cc1nc(Nc2ncc(C(=O)Nc3c(C)cccc3Cl)s2)cc(N2CCN(CCO)CC2)n1 [Dasatinib] + CC(=O)Nc1cccc(-n2c(=O)n(C3CC3)c(=O)c3c(Nc4ccc(I)cc4F)n(C)c(=O)c(C)c32)c1 [Trametinib] (first compound max 2 µM, 7x7, partner max 1 µM) | 0.777 | 1 | 0.761 | 0.273 | 0.427 | 0.766 | 0.888 | 0.69 | 0.436 | 0.781 | 0.199 | 0.675 | 0.743 | 1 | 0.749 | -0.0101 | -0.0369 | 0.0159 | -0.0945 | -0.0569 |
| CN(CCO)CC[C@H](CSc1ccccc1)Nc1ccc(S(=O)(=O)NC(=O)c2ccc(N3CCC([C@@H](O)c4ccccc4-c4ccc(Cl)cc4)CC3)cc2)cc1S(=O)(=O)C(F)(F)F [AZD4320] + Cn1cnc2c(F)c(Nc3ccc(Br)cc3Cl)c(C(=O)NOCCO)cc21 [Selumetinib] (first compound max 1 µM, 7x7, partner max 3 µM) | 0.57 | 1 | 0.237 | 0.97 | 0.307 | 0.402 | 0.868 | 0.564 | 0.327 | 0.406 | 0.753 | 0.496 | 0.617 | 0.998 | 0.346 | 0.0177 | -0.0317 | -0.0867 | -0.0231 | -0.0352 |
| Cc1cc2ncnn2cc1Nc1ncc2c(n1)n(C1CCOCC1)c(=O)n2C [AZD7648] + CN(C)CCCOc1ccc(-c2ccc3ncc4c(c3c2)n(C2CCOCC2)c(=O)n4C)cn1 [AZD0156] (first compound max 10 µM, 7x7, partner max 1 µM) | 0.525 | 0.238 | 0.25 | 0.351 | 0.237 | 0.442 | 0.302 | 0.349 | 0.254 | 0.347 | 0.403 | 0.671 | 0.344 | 0.565 | 0.293 | 0.0038 | -0.0144 | 0.013 | 0.0101 | -0.0643 |
| N#Cc1cnc(Nc2cc(NC[C@H]3CNCCO3)c(C(F)(F)F)cn2)cn1 [SRA737] + C=CCn1c(=O)c2cnc(Nc3ccc(N4CCN(C)CC4)cc3)nc2n1-c1cccc(C(C)(C)O)n1 [AZD1775] (first compound max 10 µM, partner max 1 µM) | 0.512 | 1 | 0.575 | 0.922 | 0.966 | 0.653 | 0.304 | 0.763 | 0.804 | 0.543 | 0.413 | 0.826 | 0.854 | 0.969 | 0.865 | 0.119 | -0.0171 | 0.0566 | 0.0819 | 0.0488 |
| CN(CCO)CC[C@H](CSc1ccccc1)Nc1ccc(S(=O)(=O)NC(=O)c2ccc(N3CCC([C@@H](O)c4ccccc4-c4ccc(Cl)cc4)CC3)cc2)cc1S(=O)(=O)C(F)(F)F [AZD4320] + Cc1cc2ncnn2cc1Nc1ncc2c(n1)n(C1CCOCC1)c(=O)n2C [AZD7648] (first compound max 1 µM, 7x7, partner max 10 µM) | 0.405 | 1 | 0.108 | 0.979 | 0.221 | 0.444 | 0.248 | 0.186 | 0.178 | 0.229 | 0.735 | 0.474 |  | 0.801 | 0.162 | -0.0383 | -0.0205 | -0.014 | -0.0213 | -0.0171 |
| Cc1cc2ncnn2cc1Nc1ncc2c(n1)n(C1CCOCC1)c(=O)n2C [AZD7648] + C=CCn1c(=O)c2cnc(Nc3ccc(N4CCN(C)CC4)cc3)nc2n1-c1cccc(C(C)(C)O)n1 [AZD1775] (first compound max 10 µM, partner max 1 µM) | 0.555 | 0.978 | 0.392 | 0.732 | 0.927 | 0.63 | 0.536 | 0.524 | 0.679 | 0.555 | 0.615 | 0.89 | 0.922 | 0.887 | 0.893 | -0.03 | 0.0239 | 0.0668 | -0.0348 | -0.0294 |
| C[C@@H](c1ccc2nccn2c1)n1nnc2ncc(-c3cnn(C)c3)nc21 [Savolitinib] + CC1(C)CCC(CN2CCN(c3ccc(C(=O)NS(=O)(=O)c4ccc(NCC5CCOCC5)c([N+](=O)[O-])c4)c(Oc4cnc5[nH]ccc5c4)c3)CC2)=C(c2ccc(Cl)cc2)C1 [Venetoclax] (first compound max 1 µM, 7x7, partner max 1 µM) | 0.252 | 0.86 | 0.158 | 0.313 | 0.169 | 0.106 | 0.24 | 0.128 | 0.113 | 0.202 | 0.182 | 0.157 | 0.12 | 0.372 | 0.127 | -0.0471 | -0.0502 | -0.0568 | -0.0439 | -0.0739 |
| CN(CCO)CC[C@H](CSc1ccccc1)Nc1ccc(S(=O)(=O)NC(=O)c2ccc(N3CCC([C@@H](O)c4ccccc4-c4ccc(Cl)cc4)CC3)cc2)cc1S(=O)(=O)C(F)(F)F [AZD4320] + CC(=O)O[C@H]1C(=O)[C@@]2(C)[C@H]([C@H](OC(=O)c3ccccc3)[C@]3(O)C[C@H](OC(=O)[C@H](O)[C@@H](NC(=O)c4ccccc4)c4ccccc4)C(C)=C1C3(C)C)[C@]1(OC(C)=O)CO[C@@H]1C[C@@H]2O [Paclitaxel] (first compound max 1 µM, 7x7, partner max 3 µM) | 0.436 | 1 | 0.95 | 1 | 0.837 | 0.821 | 0.808 | 0.916 | 0.853 | 0.585 | 1 |  | 0.795 | 1 | 0.71 | 0.0129 | -0.0029 | 0.0195 | 0.0578 | 0.17 |
